# Patent publication US5391744A (priority 1993, dated 1995)
# “Also recorded” adds a separate entry of the source. Where two headings read alike, the source gives them in different places.
# What was measured:
# [1] = molecular target: T1, dopamine transporter (high-affinity uptake of [^3 H]dopamine into striatal nerve endings) (Rattus norvegicus, UniProt P23977); test: inhibition of high-affinity uptake of [^3 H]dopamine into striatal nerve endings (synaptosomes); type: biochemical
# T1 construct: striatal nerve endings (synaptosomes); from tissue; host or cells: striatal nerve endings (synaptosomes)
# [2] = tested on: rats trained to discriminate cocaine
# [3] = tested on: rats trained to discriminate cocaine; test: animal or person; details: Rattus norvegicus, ip, read-out: ED50 (50% cocaine-appropriate responding)
# rats = test: casual observation of animals treated with 2c; details: 0.8 mg/kg 2c; 24 hours following administration
# dopamine transporter = dopamine transporter (Rattus norvegicus, UniProt P23977); test: displacement of [^3 H]mazindol binding from rat striatal membranes
# [4] = 0.05 mg/kg, 30 min, mean ± S.E.M.
# [5] = 0.05 mg/kg, 120 min, mean ± S.E.M.
# [6] = 0.05 mg/kg, 240 min, mean ± S.E.M.
# [7] = 0.1 mg/kg, 30 min, mean ± S.E.M.
# [8] = 0.1 mg/kg, 120 min, mean ± S.E.M.
# [9] = 0.1 mg/kg, 240 min, mean ± S.E.M.
# [10] = 0.2 mg/kg, 30 min, mean ± S.E.M.
# [11] = 0.2 mg/kg, 240 min, mean ± S.E.M.
# [12] = 0.4 mg/kg, 30 min, mean ± S.E.M.
# [13] = 0.4 mg/kg, 120 min, mean ± S.E.M.
# [14] = 0.4 mg/kg, 240 min, mean ± S.E.M.
# [15] = 0.8 mg/kg, 30 min, mean ± S.E.M.
# Sequence of dopamine transporter (P23977 whole entry): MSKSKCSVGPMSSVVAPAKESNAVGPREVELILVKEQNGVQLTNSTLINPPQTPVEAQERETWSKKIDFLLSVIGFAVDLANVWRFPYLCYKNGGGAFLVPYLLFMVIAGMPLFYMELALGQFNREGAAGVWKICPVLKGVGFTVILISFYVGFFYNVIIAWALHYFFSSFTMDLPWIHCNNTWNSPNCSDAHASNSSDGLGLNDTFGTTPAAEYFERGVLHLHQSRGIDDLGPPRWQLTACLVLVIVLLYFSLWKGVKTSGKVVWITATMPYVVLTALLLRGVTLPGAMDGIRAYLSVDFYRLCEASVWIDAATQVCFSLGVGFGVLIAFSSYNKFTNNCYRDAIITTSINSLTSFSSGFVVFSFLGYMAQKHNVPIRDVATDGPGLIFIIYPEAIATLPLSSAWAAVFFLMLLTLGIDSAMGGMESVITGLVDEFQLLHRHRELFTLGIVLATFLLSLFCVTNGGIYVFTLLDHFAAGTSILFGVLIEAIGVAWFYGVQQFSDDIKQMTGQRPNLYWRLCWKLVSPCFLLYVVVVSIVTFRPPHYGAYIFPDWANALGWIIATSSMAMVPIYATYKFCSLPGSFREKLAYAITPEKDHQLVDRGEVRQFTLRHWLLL
# T1 sequence (P23977 whole entry): as above
smiles,measurement,setting,value
"C=C[C@H]1[C@@H](c2ccc(Cl)cc2)C[C@@H]2CC[C@H]1N2C [Compound 2c, 3β-(4-Chlorophenyl)-2β-vinyltropane]",IC50,[1],3.2 ± 0.6 nM
same,n/N (animals completing 20 responses / tested),"[2]; 0.05 mg/kg, 30 min",7/7
same,% Drug responses,[2]; [4],19 ± 4%
same,Rate (responses/min),[2]; [4],29.6 ± 9 responses/min
same,n/N (animals completing 20 responses / tested),"[2]; 0.05 mg/kg, 120 min",7/7
same,% Drug responses,[2]; [5],22 ± 14%
same,Rate (responses/min),[2]; [5],18.4 ± 6 responses/min
same,n/N (animals completing 20 responses / tested),"[2]; 0.05 mg/kg, 240 min",7/7
same,% Drug responses,[2]; [6],14 ± 14%
same,Rate (responses/min),[2]; [6],28.3 ± 5 responses/min
same,n/N (animals completing 20 responses / tested),"[2]; 0.1 mg/kg, 30 min",7/7
same,% Drug responses,[2]; [7],40 ± 17%
same,Rate (responses/min),[2]; [7],37.1 ± 6 responses/min
same,n/N (animals completing 20 responses / tested),"[2]; 0.1 mg/kg, 120 min",7/7
same,% Drug responses,[2]; [8],75 ± 16%
same,Rate (responses/min),[2]; [8],25.7 ± 5 responses/min
same,n/N (animals completing 20 responses / tested),"[2]; 0.1 mg/kg, 240 min",7/7
same,% Drug responses,[2]; [9],61 ± 17%
same,Rate (responses/min),[2]; [9],23.5 ± 4 responses/min
same,n/N (animals completing 20 responses / tested),"[2]; 0.2 mg/kg, 30 min",7/7
same,% Drug responses,[2]; [10],83 ± 10%
same,Rate (responses/min),[2]; [10],26.2 ± 6 responses/min
same,n/N (animals completing 20 responses / tested),"[2]; 0.2 mg/kg, 120 min",7/7
same,% Drug responses,"[2]; 0.2 mg/kg, 120 min, mean",100%
same,Rate (responses/min),"[2]; 0.2 mg/kg, 120 min, mean ± S.E.M.",46.8 ± 9 responses/min
same,n/N (animals completing 20 responses / tested),"[2]; 0.2 mg/kg, 240 min",7/7
same,% Drug responses,[2]; [11],98 ± 1%
same,Rate (responses/min),[2]; [11],47.9 ± 10 responses/min
same,n/N (animals completing 20 responses / tested),"[2]; 0.4 mg/kg, 30 min",7/7
same,% Drug responses,[2]; [12],99 ± 1%
same,Rate (responses/min),[2]; [12],52.8 ± 9 responses/min
same,n/N (animals completing 20 responses / tested),"[2]; 0.4 mg/kg, 120 min, * intense stereotypic response, failed to complete session",3/5
same,% Drug responses,[2]; [13],72 ± 28%
same,Rate (responses/min),[2]; [13],24.9 ± 18 responses/min
same,n/N (animals completing 20 responses / tested),"[2]; 0.4 mg/kg, 240 min, * intense stereotypic response, failed to complete session",4/5
same,% Drug responses,[2]; [14],91 ± 9%
same,Rate (responses/min),[2]; [14],23.6 ± 18 responses/min
same,n/N (animals completing 20 responses / tested),"[2]; 0.8 mg/kg, 30 min",7/7
same,% Drug responses,[2]; [15],93 ± 5%
same,Rate (responses/min),[2]; [15],33.5 ± 9 responses/min
same,% Drug responses,"[2]; 0.8 mg/kg, 120 min",95%
same,Rate (responses/min),"[2]; 0.8 mg/kg, 120 min",7.7 responses/min
same,n/N (animals completing 20 responses / tested),"[2]; 0.8 mg/kg, 120 min, * intense stereotypic response, failed to complete session",1/7
same,% Drug responses,"[2]; 0.8 mg/kg, 240 min",100%
same,n/N (animals completing 20 responses / tested),"[2]; 0.8 mg/kg, 240 min, * intense stereotypic response, failed to complete session",3/7
same,Rate (responses/min),"[2]; 0.8 mg/kg, 240 min, mean ± S.E.M.",39.1 ± 1 responses/min
same,complete cocaine-like responding,"[2]; 0.2 and 0.4 mg/kg, 30 min injection period",induced complete cocaine-line responding in all animals
same,response rates,"[2]; in words, across test doses","stable across the different test doses of 2c, with the exception of the highest dose (0.8 mg/kg) of 2c which reduced response rates"
same,substitution for the cocaine cue / drug-appropriate responding,"[2]; in words, dose-dependence over the tested doses",dose-dependent substitution for the cocaine cue
same,duration of action,"[2]; in words, injection interval 30-240 min",long duration of action
same,ED50,[3]; 0.5 h,0.11 mg/kg
same,ED50,[3]; 2 h,0.08 mg/kg
same,ED50,[3]; 4 h,0.09 mg/kg
same,hyperactivity,rats,still hyperactive 24 hours following administration
same,IC50,dopamine transporter,1.2 ± 0.3 nM
same,potency compared with 1d,dopamine transporter; relative to ester counterpart 1d,"slightly more potent than the ""Win"" type compound 1d; also recorded: slightly more potent than its ester counterpart 1d"
